Test results reported in BindingDB's records for doi:10.1021/bi00419a019 (University of Wisconsin, 1988).

Biological target: T1, Aminopeptidase B (Mus musculus, UniProt Q8VCT3)
T1 sequence (Q8VCT3 whole entry): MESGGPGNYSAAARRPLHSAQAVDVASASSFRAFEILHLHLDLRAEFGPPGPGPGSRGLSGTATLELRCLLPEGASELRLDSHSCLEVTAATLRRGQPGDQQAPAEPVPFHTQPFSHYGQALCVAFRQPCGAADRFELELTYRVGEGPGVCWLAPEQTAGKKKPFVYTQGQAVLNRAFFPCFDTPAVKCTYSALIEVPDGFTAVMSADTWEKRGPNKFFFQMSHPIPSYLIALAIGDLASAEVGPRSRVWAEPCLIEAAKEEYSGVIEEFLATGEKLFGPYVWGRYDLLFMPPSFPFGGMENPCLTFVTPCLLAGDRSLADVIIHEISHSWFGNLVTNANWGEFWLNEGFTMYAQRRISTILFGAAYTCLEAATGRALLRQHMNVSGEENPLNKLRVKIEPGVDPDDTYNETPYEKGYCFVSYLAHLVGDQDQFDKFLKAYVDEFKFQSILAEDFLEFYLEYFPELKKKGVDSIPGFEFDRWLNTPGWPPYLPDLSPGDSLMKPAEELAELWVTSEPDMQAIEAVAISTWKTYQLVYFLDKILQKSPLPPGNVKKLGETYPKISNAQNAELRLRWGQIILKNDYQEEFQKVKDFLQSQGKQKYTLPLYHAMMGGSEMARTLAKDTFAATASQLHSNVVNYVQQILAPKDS

CC(C)C[C@H](NC(=O)[C@@H](O)[C@H](N)Cc1ccccc1)C(=O)O
IC50: 160 µM
